Data taken from PMC5218480 (PLoS ONE, 2017).

Tested on: MV-4-11 cells
Assay: Gene expression microarray analysis (Affymetrix PrimeView) and GSEA
Type: cell-based, human
Design: RFU PODN (11730768_x_at) / Fold change /veh PODN (11730768_x_at) / RFU LINC00158 (11744669_a_at) / Fold change /veh LINC00158 (11744669_a_at) / RFU DUSP10 (11751237_a_at) / Fold change /veh DUSP10 (11751237_a_at) / RFU ID3 (11757404_x_at) / Fold change /veh ID3 (11757404_x_at) / RFU PLEKHG5 (11737974_s_at) / Fold change /veh PLEKHG5 (11737974_s_at) / RFU LRRC4B (11730491_at) / Fold change /veh LRRC4B (11730491_at) / RFU GIMAP4 (11747438_a_at) / Fold change /veh GIMAP4 (11747438_a_at) / RFU KRT8 (11758183_x_at) / Fold change /veh KRT8 (11758183_x_at) / RFU CNN1 (11734310_a_at) / Fold change /veh CNN1 (11734310_a_at) / RFU VPS37D (11726825_at) / Fold change /veh VPS37D (11726825_at) / RFU C10orf10 (11716522_x_at) / Fold change /veh C10orf10 (11716522_x_at) / RFU KIR2DL2 /// KIR2DL4 /// KIR2DL5A /// KIR2DL5B /// KIR2DS1 /// KIR2DS2 /// KIR2DS3 /// KIR2DS4 /// KIR3DL3 /// KIR3DL3 /// KIR3DS1 (11738374_at) / Fold change /veh KIR2DL2 /// KIR2DL4 /// KIR2DL5A /// KIR2DL5B /// KIR2DS1 /// KIR2DS2 /// KIR2DS3 /// KIR2DS4 /// KIR3DL3 /// KIR3DL3 /// KIR3DS1 (11738374_at) / RFU C1QL1 (11718748_at) / Fold change /veh C1QL1 (11718748_at) / RFU TMPRSS4 (11747572_a_at) / Fold change /veh TMPRSS4 (11747572_a_at) / RFU HAMP (11756126_x_at) / Fold change /veh HAMP (11756126_x_at) / RFU RNFT2 (11725882_a_at) / Fold change /veh RNFT2 (11725882_a_at) / RFU NR4A2 (11747474_a_at) / Fold change /veh NR4A2 (11747474_a_at) / RFU ABCC12 (11746883_a_at) / Fold change /veh ABCC12 (11746883_a_at) / RFU TMEM136 (11760407_x_at) / Fold change /veh TMEM136 (11760407_x_at) / RFU CLDN22 /// WWC2 (11732394_at) / Fold change /veh CLDN22 /// WWC2 (11732394_at) / RFU HLA-DPB1 (11760878_x_at) / Fold change /veh HLA-DPB1 (11760878_x_at) / RFU SPINT1 (11716480_a_at) / Fold change /veh SPINT1 (11716480_a_at) / RFU GAP43 (11754022_s_at) / Fold change /veh GAP43 (11754022_s_at) / RFU A4GNT (11735810_at) / Fold change /veh A4GNT (11735810_at) / RFU PRB3 (11715151_x_at) / Fold change /veh PRB3 (11715151_x_at) / RFU TUBB4B (11761932_at) / Fold change /veh TUBB4B (11761932_at) / RFU CAPN14 (11732068_a_at) / Fold change /veh CAPN14 (11732068_a_at) / RFU TMCC2 (11721928_a_at) / Fold change /veh TMCC2 (11721928_a_at) / RFU IRGQ (11745062_a_at) / Fold change /veh IRGQ (11745062_a_at) / RFU FAM174B (11720279_a_at) / Fold change /veh FAM174B (11720279_a_at) / RFU TMPRSS4 (11748680_a_at) / Fold change /veh TMPRSS4 (11748680_a_at) / RFU FAM212B (11763350_a_at) / Fold change /veh FAM212B (11763350_a_at) / RFU PLEKHG5 (11743358_a_at) / Fold change /veh PLEKHG5 (11743358_a_at) / RFU ZSCAN30 (11745921_a_at) / Fold change /veh ZSCAN30 (11745921_a_at) / RFU CMKLR1 (11741424_a_at) / Fold change /veh CMKLR1 (11741424_a_at) / RFU LOC101060620 /// MAPK8IP1 (11723275_at) / Fold change /veh LOC101060620 /// MAPK8IP1 (11723275_at) / RFU SPTSSB (11747773_x_at) / Fold change /veh SPTSSB (11747773_x_at) / RFU PRSS12 (11739890_at) / Fold change /veh PRSS12 (11739890_at) / RFU BIN1 (11741810_x_at) / Fold change /veh BIN1 (11741810_x_at) / RFU WNT11 (11732464_a_at) / Fold change /veh WNT11 (11732464_a_at) / RFU C10orf10 (11716521_a_at) / Fold change /veh C10orf10 (11716521_a_at) / RFU C5orf56 (11738089_at) / Fold change /veh C5orf56 (11738089_at) / RFU CYB561 (11721691_x_at) / Fold change /veh CYB561 (11721691_x_at) / RFU ANKRD19P (11752326_a_at) / Fold change /veh ANKRD19P (11752326_a_at) / RFU OR2T12 /// OR2T33 /// OR2T8 (11738714_s_at) / Fold change /veh OR2T12 /// OR2T33 /// OR2T8 (11738714_s_at) / RFU VCAN (11748164_a_at) / Fold change /veh VCAN (11748164_a_at) / RFU JSRP1 (11732532_at) / Fold change /veh JSRP1 (11732532_at) / RFU KRTAP10-11 (11738290_x_at) / Fold change /veh KRTAP10-11 (11738290_x_at) / RFU MYO3A (11730013_a_at) / Fold change /veh MYO3A (11730013_a_at) / RFU EBF3 (11725865_a_at) / Fold change /veh EBF3 (11725865_a_at) / RFU CAMK2N1 (11719241_x_at) / Fold change /veh CAMK2N1 (11719241_x_at) / RFU C5orf56 (11738088_a_at) / Fold change /veh C5orf56 (11738088_a_at) / RFU OLFML3 (11715873_a_at) / Fold change /veh OLFML3 (11715873_a_at) / RFU LOC100653217 /// NTM (11731650_a_at) / Fold change /veh LOC100653217 /// NTM (11731650_a_at) / RFU MAPK11 (11762145_a_at) / Fold change /veh MAPK11 (11762145_a_at) / RFU FIZ1 (11724087_x_at) / Fold change /veh FIZ1 (11724087_x_at) / RFU OASL (11726364_x_at) / Fold change /veh OASL (11726364_x_at) / RFU SOX15 (11748057_x_at) / Fold change /veh SOX15 (11748057_x_at) / RFU CD79A (11719716_a_at) / Fold change /veh CD79A (11719716_a_at) / RFU HIST1H1D (11736915_at) / Fold change /veh HIST1H1D (11736915_at) / RFU CASKIN2 (11723855_a_at) / Fold change /veh CASKIN2 (11723855_a_at) / RFU LOC730098 (11760151_x_at) / Fold change /veh LOC730098 (11760151_x_at) / RFU OR4N2 (11742367_at) / Fold change /veh OR4N2 (11742367_at) / RFU PRRT2 (11749266_a_at) / Fold change /veh PRRT2 (11749266_a_at) / RFU SNX32 (11753110_a_at) / Fold change /veh SNX32 (11753110_a_at) / RFU CDHR5 (11726645_a_at) / Fold change /veh CDHR5 (11726645_a_at) / RFU RCAN1 (11760418_a_at) / Fold change /veh RCAN1 (11760418_a_at) / RFU FAM167A (11723789_a_at) / Fold change /veh FAM167A (11723789_a_at) / RFU FAM26E (11764081_at) / Fold change /veh FAM26E (11764081_at) / RFU ISYNA1 (11749810_s_at) / Fold change /veh ISYNA1 (11749810_s_at) / RFU ACY1 (11761880_at) / Fold change /veh ACY1 (11761880_at) / RFU 11764098_at / Fold change /veh 11764098_at / RFU SAMD14 (11745864_x_at) / Fold change /veh SAMD14 (11745864_x_at) / RFU NPB (11741838_a_at) / Fold change /veh NPB (11741838_a_at) / RFU TMPRSS6 (11731388_a_at) / Fold change /veh TMPRSS6 (11731388_a_at) / RFU KRTAP10-2 (11738614_at) / Fold change /veh KRTAP10-2 (11738614_at) / RFU ARHGAP8 /// PRR5-ARHGAP8 (11727945_x_at) / Fold change /veh ARHGAP8 /// PRR5-ARHGAP8 (11727945_x_at) / RFU KRTAP5-7 /// NADSYN1 (11734609_at) / Fold change /veh KRTAP5-7 /// NADSYN1 (11734609_at) / RFU RASL12 (11751679_a_at) / Fold change /veh RASL12 (11751679_a_at) / RFU CDKN2B (11736163_a_at) / Fold change /veh CDKN2B (11736163_a_at) / RFU PRF1 (11729649_at) / Fold change /veh PRF1 (11729649_at) / RFU, ZNF638 /// ZNF638-IT1 / Fold change vs veh, ZNF638 /// ZNF638-IT1 / RFU, PANK3 / Fold change vs veh, PANK3 / RFU, SH3YL1 / Fold change vs veh, SH3YL1 / RFU, ZEB2 / Fold change vs veh, ZEB2 / RFU, NRIP1 / Fold change vs veh, NRIP1 / RFU, PTTG1IP / Fold change vs veh, PTTG1IP / RFU, CAPN2 / Fold change vs veh, CAPN2 / RFU, MED14 / Fold change vs veh, MED14 / RFU, SNORA58 / Fold change vs veh, SNORA58 / RFU, C1orf63 / Fold change vs veh, C1orf63 / RFU, LRRFIP1 / Fold change vs veh, LRRFIP1 / RFU, NDUFAF7 / Fold change vs veh, NDUFAF7 / RFU, SLC12A2 / Fold change vs veh, SLC12A2 / RFU, IBTK / Fold change vs veh, IBTK / RFU, ESF1 / Fold change vs veh, ESF1 / Fold change vs veh, TMEM50B / RFU, TAOK1 / Fold change vs veh, TAOK1 / RFU, ACBD3 / Fold change vs veh, ACBD3 / RFU, TMA16 / Fold change vs veh, TMA16 / RFU, RWDD3 / Fold change vs veh, RWDD3 / RFU, BCAT1 / Fold change vs veh, BCAT1 / RFU, EDEM3 / Fold change vs veh, EDEM3 / RFU, TMEM33 / Fold change vs veh, TMEM33 / RFU, WDR75 / Fold change vs veh, WDR75 / RFU, AHCTF1 / Fold change vs veh, AHCTF1 / RFU, TFRC / Fold change vs veh, TFRC / RFU, ZDHHC17 / Fold change vs veh, ZDHHC17 / RFU, NOM1 / Fold change vs veh, NOM1 / RFU, ARL8B / Fold change vs veh, ARL8B / RFU, ZBTB11 / Fold change vs veh, ZBTB11 / RFU, TAMM41 / Fold change vs veh, TAMM41 / RFU, KIAA1704 /// LOC100996395 / Fold change vs veh, KIAA1704 /// LOC100996395 / RFU, ING1 / Fold change vs veh, ING1 / RFU, TRMT61B / Fold change vs veh, TRMT61B / RFU, FUBP3 / Fold change vs veh, FUBP3 / RFU, TP53 / Fold change vs veh, TP53 / RFU, TNKS2 / Fold change vs veh, TNKS2 / RFU, ZFP14 / Fold change vs veh, ZFP14 / RFU, ACTR2 / Fold change vs veh, ACTR2 / RFU, PPP3R1 / Fold change vs veh, PPP3R1 / RFU, PIK3R1 / Fold change vs veh, PIK3R1 / RFU, HNRNPA1 / Fold change vs veh, HNRNPA1 / RFU, RNF170 / Fold change vs veh, RNF170 / RFU, ZNF28 / Fold change vs veh, ZNF28 / RFU, RNGTT / Fold change vs veh, RNGTT / RFU, OGT / Fold change vs veh, OGT / RFU, BRD1 / Fold change vs veh, BRD1 / RFU, MARS / Fold change vs veh, MARS / RFU, ZNF655 / Fold change vs veh, ZNF655 / RFU, FAHD1 / Fold change vs veh, FAHD1 / RFU, BDP1 / Fold change vs veh, BDP1 / RFU, LRRCC1 / Fold change vs veh, LRRCC1 / RFU, ARID1A / Fold change vs veh, ARID1A / RFU, ZNF146 / Fold change vs veh, ZNF146 / RFU, ZNF330 / Fold change vs veh, ZNF330 / RFU, GPN3 / Fold change vs veh, GPN3 / RFU, C9orf123 / Fold change vs veh, C9orf123 / RFU, N4BP2L2 / Fold change vs veh, N4BP2L2 / RFU, ARFIP1 / Fold change vs veh, ARFIP1 / RFU, FAM179B / Fold change vs veh, FAM179B / RFU, BCL10 / Fold change vs veh, BCL10 / RFU, UHRF1BP1L / Fold change vs veh, UHRF1BP1L / RFU, BET1 / Fold change vs veh, BET1 / RFU, CNOT2 / Fold change vs veh, CNOT2 / RFU, ZNF268 / Fold change vs veh, ZNF268 / Fold change vs veh, ZNF507 / RFU, DGCR2 / Fold change vs veh, DGCR2 / RFU, WDSUB1 / Fold change vs veh, WDSUB1 / Fold change vs veh, HSP90B1 /// MIR3652 / RFU, ADSS / Fold change vs veh, ADSS / RFU, GK / Fold change vs veh, GK / RFU, ZNF148 / Fold change vs veh, ZNF148 / RFU, TAF9 / Fold change vs veh, TAF9 / RFU, SLC1A5 / Fold change vs veh, SLC1A5 / RFU, SLMO2 / Fold change vs veh, SLMO2 / RFU, ABCC4 / Fold change vs veh, ABCC4 / RFU, LOC101060439 /// RAP1B / Fold change vs veh, LOC101060439 /// RAP1B / RFU, RFX7 / Fold change vs veh, RFX7 / RFU, GTPBP10 / Fold change vs veh, GTPBP10 / RFU, CNEP1R1 / Fold change vs veh, CNEP1R1 / RFU, BIVM-ERCC5 /// ERCC5 / Fold change vs veh, BIVM-ERCC5 /// ERCC5 / RFU, ILF3 / Fold change vs veh, ILF3 / RFU 11762660_at / Fold change /veh 11762660_at / RFU VCAN (11757783_s_at) / Fold change /veh VCAN (11757783_s_at) / RFU DDX43 (11728927_at) / Fold change /veh DDX43 (11728927_at) / RFU KRT8 (11758188_x_at) / Fold change /veh KRT8 (11758188_x_at) / RFU NKD1 (11759106_at) / Fold change /veh NKD1 (11759106_at) / RFU SRD5A1 (11742802_a_at) / Fold change /veh SRD5A1 (11742802_a_at) / RFU TPSAB1 /// TPSB2 (11721975_s_at) / Fold change /veh TPSAB1 /// TPSB2 (11721975_s_at) / RFU GSTM3 (11746129_a_at) / Fold change /veh GSTM3 (11746129_a_at) / RFU IL23R (11737362_x_at) / Fold change /veh IL23R (11737362_x_at) / RFU TMEM51 (11727254_a_at) / Fold change /veh TMEM51 (11727254_a_at) / RFU PIWIL2 (11732686_x_at) / Fold change /veh PIWIL2 (11732686_x_at) / RFU ORM1 (11744905_x_at) / Fold change /veh ORM1 (11744905_x_at) / RFU CCDC152 (11743942_at) / Fold change /veh CCDC152 (11743942_at) / RFU ECM1 (11717891_a_at) / Fold change /veh ECM1 (11717891_a_at) / RFU IL23R (11748794_a_at) / Fold change /veh IL23R (11748794_a_at) / RFU TNFAIP8L3 (11732012_x_at) / Fold change /veh TNFAIP8L3 (11732012_x_at) / RFU MBOAT4 (11741988_at) / Fold change /veh MBOAT4 (11741988_at) / RFU 11764193_at / Fold change /veh 11764193_at / RFU TMEM53 (11763286_at) / Fold change /veh TMEM53 (11763286_at) / RFU MAGEB2 (11727129_at) / Fold change /veh MAGEB2 (11727129_at) / RFU TMEM200A (11744735_a_at) / Fold change /veh TMEM200A (11744735_a_at) / RFU CCDC152 (11751479_a_at) / Fold change /veh CCDC152 (11751479_a_at) / RFU FAM211A (11726209_a_at) / Fold change /veh FAM211A (11726209_a_at) / RFU RGS16 (11746705_a_at) / Fold change /veh RGS16 (11746705_a_at) / RFU VCAN (11755009_s_at) / Fold change /veh VCAN (11755009_s_at) / RFU RHOB (11743442_s_at) / Fold change /veh RHOB (11743442_s_at) / RFU RGS16 (11720943_a_at) / Fold change /veh RGS16 (11720943_a_at) / RFU RGS16 (11720944_at) / Fold change /veh RGS16 (11720944_at) / RFU, VPS4B / Fold change vs veh, VPS4B / RFU, CREB1 / Fold change vs veh, CREB1 / RFU, DNAJC13 / Fold change vs veh, DNAJC13 / RFU, GNAQ / Fold change vs veh, GNAQ / RFU, CDK5R1 / Fold change vs veh, CDK5R1 / RFU, ZRANB3 / Fold change vs veh, ZRANB3 / RFU, CUL4A / Fold change vs veh, CUL4A / RFU, CCNY / Fold change vs veh, CCNY / RFU, UFL1 / Fold change vs veh, UFL1 / RFU, COG3 / Fold change vs veh, COG3 / RFU, DIAPH2 / Fold change vs veh, DIAPH2 / RFU, SKA2 / Fold change vs veh, SKA2 / RFU, AFF3 / Fold change vs veh, AFF3 / RFU, LMF1 / Fold change vs veh, LMF1 / RFU, IPO11 / Fold change vs veh, IPO11 / RFU, DFFB / Fold change vs veh, DFFB / RFU, FOXP1 / Fold change vs veh, FOXP1 / RFU, CARD8 / Fold change vs veh, CARD8 / RFU, STRN3 / Fold change vs veh, STRN3 / RFU, ADK / Fold change vs veh, ADK / RFU, RASSF2 / Fold change vs veh, RASSF2 / RFU, WIPF1 / Fold change vs veh, WIPF1 / RFU, LARP1B / Fold change vs veh, LARP1B / RFU, RASA1 / Fold change vs veh, RASA1 / RFU, RB1 / Fold change vs veh, RB1 / RFU, PPFIA1 / Fold change vs veh, PPFIA1 / RFU, MAT2A / Fold change vs veh, MAT2A / RFU, CCT5 / Fold change vs veh, CCT5 / RFU, WDR92 / Fold change vs veh, WDR92 / RFU, CUX1 / Fold change vs veh, CUX1 / RFU, TTC7A / Fold change vs veh, TTC7A / RFU, TMEM135 / Fold change vs veh, TMEM135 / RFU, DEPTOR / Fold change vs veh, DEPTOR / RFU, CPM / Fold change vs veh, CPM / RFU, DNAJB6 / Fold change vs veh, DNAJB6 / RFU, CACNA2D3 / Fold change vs veh, CACNA2D3 / RFU, DTX4 / Fold change vs veh, DTX4 / RFU, TFCP2 / Fold change vs veh, TFCP2 / RFU, GMCL1 /// GMCL1P1 / Fold change vs veh, GMCL1 /// GMCL1P1 / RFU, AEBP2 / Fold change vs veh, AEBP2 / RFU, SNHG1 /// SNORD22 /// SNORD25 /// SNORD26 /// SNORD27 /// SNORD28 /// SNORD29 /// SNORD31 / Fold change vs veh, SNHG1 /// SNORD22 /// SNORD25 /// SNORD26 /// SNORD27 /// SNORD28 /// SNORD29 /// SNORD31 / Fold change (Aza/veh), C12orf56 (ProbeSet 11735607_a_at) / Fold change (ACY-1035/veh), C12orf56 (ProbeSet 11735607_a_at) / Fold change (Aza/veh), FGFR1OP (ProbeSet 11751329_s_at) / Fold change (ACY-1035/veh), FGFR1OP (ProbeSet 11751329_s_at) / Fold change (Aza/veh), VPS36 (ProbeSet 11739960_a_at) / Fold change (ACY-1035/veh), VPS36 (ProbeSet 11739960_a_at) / RFU SYPL1 (11715823_x_at) / Fold change /veh SYPL1 (11715823_x_at) / RFU IGFBP7 (11715501_s_at) / Fold change /veh IGFBP7 (11715501_s_at) / RFU REEP3 (11722064_at) / Fold change /veh REEP3 (11722064_at) / RFU IGLL1 (11728026_x_at) / Fold change /veh IGLL1 (11728026_x_at): dose or concentration left out as unconfirmed
Settings: MV-4-11 cells, 48 hours

## Nc1ccc(-c2cccs2)cc1NC(=O)c1ccc2c(c1)cc(C1CC1)n2CCN1CCOCC1 [ACY-1035]
  RFU RASL12 (11751679_a_at): 18.80 RFU
